PubChem BioAssay AID2060616 (Molecular Pharmacology Branch, DTP, NCI, 2025)
pIC50: −log10 of the molar value.

Tested on: 377384-186-R-J1-PDC complex spheroid viability
Assay: Anticancer human tumor 377384-186-R-J1-PDC patient-derived pancreatic carcinoma cell line growth inhibition [CLK]
Conditions: for pIC50: curve of first compound; for viability, T/C: stronger effect = lower value
Source text: A high-throughput screen of multi-cell type tumor spheroids was designed to identify active combinations of […] and targeted small molecules. Complex spheroids include a stromal component modeled by human endothelial cells (HUVEC) and fibroblasts modeled by human mesenchymal stem cells (MSCs). The concentration ranges selected for each drug and investigational agent were based upon clinically achievable concentrations if the clinical Cmax of the agent was known.
Compounds. The drugs and investigational agents: cirtuvivint (SM08502; NSC835563), CC-671 (NSC850746), vemurafenib (NSC761431), tapotoclax (NSC804041), sotorasib (NSC818433), adagrasib (NSC831453), MRTX-1133 (NSC836407), BAY2416964 (NSC825713), copanlisib (NSC816437), inavolisib (NSC800729), abemaciclib (NSC768073), osimertinib (NSC779217), entinostat (NSC756642), eltanexor (KPT-8602, NSC794443), venetoclax (NSC766270), ceralasertib (NSC777638), bortezomib (NSC756655), olaparib (NSC753686), talazoparib (NSC767125), alisertib (NSC759677), peposertib (NSC802822), gemcitabine (NSC613327), 5-fluorouracil (NSC19893), SN-38 (NSC673596), oxaliplatin (NSC266046), paclitaxel (NSC125973), and doxorubicin (NSC123127), were obtained from the National Cancer Institute (NCI) Developmental Therapeutics Program Chemical Repository. The FDA-approved anticancer drug set is available from the Developmental Therapeutics Program at https://dtp.cancer.gov/organization/dscb/obtaining/available plates.htm. […] The stock solutions were prepared in dimethyl sulfoxide (DMSO, Sigma-Aldrich, St. Louis, MO, cat. D2650), except for the platinum complexes which were prepared in saline (Quality Biological, Gaithersburg, MD, cat. 114-055-101), at 800-fold the tested concentration and stored at -70 degrees C prior to their use. All drugs and investigational agents were tested over a range starting from a high concentration at or near the clinical Cmax and decreasing in half-log increments. If the clinical Cmax for an agent had not been determined, the highest concentration tested was 10 microM.
Cell Culture. All cells were maintained in an incubator at 37 degrees C and 5% CO2 with 95% humidity. The PDC lines were cultured according to standard operating procedures established by the NCI PDMR. Briefly, all PDCs were thawed and cultured in Matrigel-coated flasks prepared with a working solution of 1X Ham's F-12 nutrient mix, without supplementation (Invitrogen, Waltham, MA, cat. 11765054), 100 U/mL penicillin-streptomycin (Invitrogen, cat. 15140122), and 2.5% Matrigel (Corning Inc., Corning, NY, cat. 354248) for the first three passages. The 947758-054-R-J2-PDC line was cultured in 6B/Colon 1A media, which includes advanced DMEM/F-12 (Thermo Fisher Scientific, cat. 12634028), 10 mM HEPES (Thermo Fisher Scientific, cat. 15630080), 1X GlutaMAX supplement (Thermo Fisher Scientific, cat. 35050061), 0.1 mg/mL primocin (InvivoGen, cat. ant-pm-2), 10% defined fetal bovine serum, heat inactivated (HyClone Laboratories Inc., cat. SH30070.03HI), 1.25 mM N-Acetyl-L-cysteine (Sigma-Aldrich, cat. A9165), 10 mM nicotinamide (Sigma-Aldrich, cat. N0636), 1X B-27 supplement (Thermo Fisher Scientific, cat. 17504044), 1X N-2 supplement (Thermo Fisher Scientific, cat. 17502048), and 10 microM Y-27632 dihydrochloride (Tocris Bioscience, cat. 1254). The 876862-298-R-J1-PDC was cultured in 6E media, which includes all 6B/Colon 1A media components plus 50% L-WRN conditioned media (ATCC, cat. CRL-3276), 50 ng/mL recombinant human EGF recombinant protein (hEGF; Thermo Fisher Scientific, cat. PHG0311), 10 ng/mL recombinant human fibroblast growth factor 10 (hGFG-10; PeproTech, cat. 100-26), 1 ng/mL recombinant human fibroblast growth factor 2 (hFGF-2; PeproTech, cat. 100-18B), and 1 µM prostaglandin E2 (PGE2; Tocris, cat. 2296). The 227483-062-R1-J1-PDC line was cultured in Panc media, containing all 6E components except hFGF-2, with the addition of 500 nM SB-431542 (Selleckchem, cat. S1067) and 10 nM gastrin (Tocris, cat. 3006). […]
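Also: spheroids exposed to agents for 7 days before reading.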
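For viability, T/C in this document: luminescence signal used as a stand-in for viable cells.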

CC(C)CC(NC(=O)C(Cc1ccccc1)NC(=O)c1cnccn1)B(O)O (centres undefined) + CN1CCN(c2cc(C(=O)Nc3cc4cc(-c5cnn(C)c5)ccc4cn3)ccn2)CC1
pIC50 (second compound 0.0316 µM): 8.78
pIC50 (second compound 0.1 µM): 8.78
pIC50 (second compound 0.316 µM): > 9.02
pIC50 (second compound 1 µM): > 9.02
pIC50 (second compound 3.16 µM): > 9.02
pIC50 (second compound 10 µM): > 9.02
viability, T/C (second compound 0.0316 µM, first compound 0.000949 µM): 95.5%
viability, T/C (second compound 0.0316 µM, first compound 0.003 µM): 2.33%
viability, T/C (second compound 0.0316 µM, first compound 0.00949 µM): 0.36%
viability, T/C (second compound 0.0316 µM, first compound 0.03 µM): 0.23%
viability, T/C (second compound 0.0316 µM, first compound 0.0949 µM): 0.25%
viability, T/C (second compound 0.0316 µM, first compound 0.3 µM): 0.18%
viability, T/C (second compound 0.1 µM, first compound 0.000949 µM): 94.8%
viability, T/C (second compound 0.1 µM, first compound 0.003 µM): 1.28%
viability, T/C (second compound 0.1 µM, first compound 0.00949 µM): 0.36%
viability, T/C (second compound 0.1 µM, first compound 0.03 µM): 0.22%
viability, T/C (second compound 0.1 µM, first compound 0.0949 µM): 0.23%
viability, T/C (second compound 0.1 µM, first compound 0.3 µM): 0.22%
viability, T/C (second compound 0.316 µM, first compound 0.000949 µM): 22.2%
viability, T/C (second compound 0.316 µM, first compound 0.003 µM): 1.48%
viability, T/C (second compound 0.316 µM, first compound 0.00949 µM): 0.19%
viability, T/C (second compound 0.316 µM, first compound 0.03 µM): 0.21%
viability, T/C (second compound 0.316 µM, first compound 0.0949 µM): 0.28%
viability, T/C (second compound 0.316 µM, first compound 0.3 µM): 2.08%
viability, T/C (second compound 1 µM, first compound 0.000949 µM): 0.64%
viability, T/C (second compound 1 µM, first compound 0.003 µM): 0.47%
viability, T/C (second compound 1 µM, first compound 0.00949 µM): 0.35%
viability, T/C (second compound 1 µM, first compound 0.03 µM): 0.22%
viability, T/C (second compound 1 µM, first compound 0.0949 µM): 0.4%
viability, T/C (second compound 1 µM, first compound 0.3 µM): 0.32%
viability, T/C (second compound 3.16 µM, first compound 0.000949 µM): 1.01%
viability, T/C (second compound 3.16 µM, first compound 0.003 µM): 1.51%
viability, T/C (second compound 3.16 µM, first compound 0.00949 µM): 0.92%
viability, T/C (second compound 3.16 µM, first compound 0.03 µM): 0.56%
viability, T/C (second compound 3.16 µM, first compound 0.0949 µM): 0.48%
viability, T/C (second compound 3.16 µM, first compound 0.3 µM): 1.78%
viability, T/C (second compound 10 µM, first compound 0.000949 µM): 0.25%
viability, T/C (second compound 10 µM, first compound 0.003 µM): 0.32%
viability, T/C (second compound 10 µM, first compound 0.00949 µM): 0.24%
viability, T/C (second compound 10 µM, first compound 0.03 µM): 0.24%
viability, T/C (second compound 10 µM, first compound 0.0949 µM): 0.43%
viability, T/C (second compound 10 µM, first compound 0.3 µM): 1.64%

Cn1ncnc1[C@H]1c2n[nH]c(=O)c3cc(F)cc(c23)N[C@@H]1c1ccc(F)cc1 + CNC(=O)c1ccc(Nc2nc(OC3CCCC3)c3c(-c4ccc5nc(C)oc5c4)c[nH]c3n2)c(OC)c1
pIC50 (second compound 0.0316 µM): < 7.00
pIC50 (second compound 0.1 µM): > 9.50
pIC50 (second compound 0.316 µM): > 9.50
pIC50 (second compound 1 µM): > 9.50
pIC50 (second compound 3.16 µM): > 9.50
pIC50 (second compound 10 µM): > 9.50
viability, T/C (second compound 0.0316 µM, first compound 0.000316 µM): 91.7%
viability, T/C (second compound 0.0316 µM, first compound 0.001 µM): 87.6%
viability, T/C (second compound 0.0316 µM, first compound 0.00316 µM): 61.8%
viability, T/C (second compound 0.0316 µM, first compound 0.01 µM): 56.3%
viability, T/C (second compound 0.0316 µM, first compound 0.0316 µM): 53.6%
viability, T/C (second compound 0.0316 µM, first compound 0.1 µM): 48.8%
viability, T/C (second compound 0.1 µM, first compound 0.000316 µM): 48.7%
viability, T/C (second compound 0.1 µM, first compound 0.001 µM): 42.7%
viability, T/C (second compound 0.1 µM, first compound 0.00316 µM): 36.5%
viability, T/C (second compound 0.1 µM, first compound 0.01 µM): 39%
viability, T/C (second compound 0.1 µM, first compound 0.0316 µM): 34.3%
viability, T/C (second compound 0.1 µM, first compound 0.1 µM): 28.7%
viability, T/C (second compound 0.316 µM, first compound 0.000316 µM): 16.8%
viability, T/C (second compound 0.316 µM, first compound 0.001 µM): 18.2%
viability, T/C (second compound 0.316 µM, first compound 0.00316 µM): 19.2%
viability, T/C (second compound 0.316 µM, first compound 0.01 µM): 17.4%
viability, T/C (second compound 0.316 µM, first compound 0.0316 µM): 16%
viability, T/C (second compound 0.316 µM, first compound 0.1 µM): 14.9%
viability, T/C (second compound 1 µM, first compound 0.000316 µM): 21.5%
viability, T/C (second compound 1 µM, first compound 0.001 µM): 18.2%
viability, T/C (second compound 1 µM, first compound 0.00316 µM): 17.6%
viability, T/C (second compound 1 µM, first compound 0.01 µM): 15.9%
viability, T/C (second compound 1 µM, first compound 0.0316 µM): 15.6%
viability, T/C (second compound 1 µM, first compound 0.1 µM): 15.6%
viability, T/C (second compound 3.16 µM, first compound 0.000316 µM): 16.9%
viability, T/C (second compound 3.16 µM, first compound 0.001 µM): 18.6%
viability, T/C (second compound 3.16 µM, first compound 0.00316 µM): 17.3%
viability, T/C (second compound 3.16 µM, first compound 0.01 µM): 20%
viability, T/C (second compound 3.16 µM, first compound 0.0316 µM): 15.6%
viability, T/C (second compound 3.16 µM, first compound 0.1 µM): 15.3%
viability, T/C (second compound 10 µM, first compound 0.000316 µM): 18.7%
viability, T/C (second compound 10 µM, first compound 0.001 µM): 17.5%
viability, T/C (second compound 10 µM, first compound 0.00316 µM): 20.7%
viability, T/C (second compound 10 µM, first compound 0.01 µM): 16.4%
viability, T/C (second compound 10 µM, first compound 0.0316 µM): 18.5%
viability, T/C (second compound 10 µM, first compound 0.1 µM): 14.8%
